Experimental data taken from the supplement of paper PMC13380429.

How the values were obtained:
Conditions in all cases: 72 h
Caco-2 [1] = assay: relative viability EC50 (midpoint between 100% and the lowest measured viability); higher = less toxic
U2OS [2] = assay: as above
HepG2 [3] = assay: as above
Calu-3 [4] = assay: as above
Caco-2 [5] = assay: cell viability relative to DMSO; higher = less toxic
Vero E6 [6] = assay: as above
U2OS [7] = assay: as above
HepG2 [8] = assay: as above
Calu-3 [9] = assay: as above
Caco-2 [10] = assay: drug sensitivity score (DSS) for viability; higher = more toxic; extreme values may be limits of the assay
Vero E6 [11] = assay: as above
U2OS [12] = assay: as above
HepG2 [13] = assay: as above
Calu-3 [14] = assay: as above
Vero E6 [15] = assay: relative viability EC50 (midpoint between 100% and the lowest measured viability); higher = less toxic

| Compound | relative viability EC50 (Caco-2 [1]) [µM] | relative viability EC50 (U2OS [2]) [µM] | relative viability EC50 (HepG2 [3]) [µM] | relative viability EC50 (Calu-3 [4]) [µM] | cell viability (Caco-2 [5]; 1 nM) [%] | cell viability (Caco-2 [5]; 10 nM) [%] | cell viability (Caco-2 [5]; 100 nM) [%] | cell viability (Caco-2 [5]; 1000 nM) [%] | cell viability (Caco-2 [5]; 10000 nM) [%] | cell viability (Vero E6 [6]; 1 nM) [%] | cell viability (Vero E6 [6]; 10 nM) [%] | cell viability (Vero E6 [6]; 100 nM) [%] | cell viability (Vero E6 [6]; 1000 nM) [%] | cell viability (Vero E6 [6]; 10000 nM) [%] | cell viability (U2OS [7]; 1 nM) [%] | cell viability (U2OS [7]; 10 nM) [%] | cell viability (U2OS [7]; 100 nM) [%] | cell viability (U2OS [7]; 1000 nM) [%] | cell viability (U2OS [7]; 10000 nM) [%] | cell viability (HepG2 [8]; 1 nM) [%] | cell viability (HepG2 [8]; 10 nM) [%] | cell viability (HepG2 [8]; 100 nM) [%] | cell viability (HepG2 [8]; 1000 nM) [%] | cell viability (HepG2 [8]; 10000 nM) [%] | cell viability (Calu-3 [9]; 1 nM) [%] | cell viability (Calu-3 [9]; 10 nM) [%] | cell viability (Calu-3 [9]; 100 nM) [%] | cell viability (Calu-3 [9]; 1000 nM) [%] | cell viability (Calu-3 [9]; 10000 nM) [%] | drug sensitivity score (Caco-2 [10]) | drug sensitivity score (Vero E6 [11]) | drug sensitivity score (U2OS [12]) | drug sensitivity score (HepG2 [13]) | drug sensitivity score (Calu-3 [14]) | relative viability EC50 (Vero E6 [15]) [nM] |
| --- | --- | --- | --- | --- | --- | --- | --- | --- | --- | --- | --- | --- | --- | --- | --- | --- | --- | --- | --- | --- | --- | --- | --- | --- | --- | --- | --- | --- | --- | --- | --- | --- | --- | --- | --- |
| NC(=O)Nc1sc(-c2ccc(F)cc2)cc1C(N)=O [TPCA-1] | 1.44 | 2.35 | 1.3 | > 10 | 95.6 | 99.4 | 94.2 | 76.6 | 25.8 | 104 | 98.3 | 101 | 98.2 | 52 | 100 | 104 | 95.9 | 94.6 | 45.3 | 99.5 | 95.8 | 94.2 | 80.6 | 49.8 | 98.1 | 104 | 97.7 | 96.4 | 75.9 | 7.2 | 2.7 | 3.8 | 4.7 | 1.4 | – |
| COc1ccc(C(=O)c2ccccc2O)c(O)c1 [dioxybenzone] | > 10 | > 10 | > 10 | > 10 | 101 | 91 | 106 | 98.7 | 101 | 110 | 73.6 | 92.4 | 99.4 | 67.2 | 103 | 99 | 100 | 105 | 102 | 102 | 92 | 96.9 | 96 | 99.3 | 106 | 93.3 | 97.7 | 91.1 | 106 | 0 | 1.6 | 0 | 0 | 0 | – |
| COc1cc(Nc2c(C#N)cnc3cc(OCCCN4CCN(C)CC4)c(OC)cc23)c(Cl)cc1Cl [bosutinib] | 1.64 | 2.88 | 1.66 | – | 95.2 | 99.1 | 107 | 87.1 | 42.6 | 98.7 | 100 | 99.9 | 72.5 | 15.2 | 95.4 | 101 | 102 | 97.1 | 22.7 | 105 | 101 | 101 | 81.6 | 15.9 | – | – | – | – | – | 5.2 | 8.6 | 4.7 | 7.6 | – | 1340 |
| C[N+](C)(C)CCCCCC[N+](C)(C)C [hexamethonium] | > 10 | > 10 | > 10 | > 10 | 97.3 | 104 | 98.2 | 99.4 | 100 | – | – | – | – | – | 100 | 102 | 96.2 | 103 | 99.8 | 109 | 96.7 | 97.6 | 95.3 | 96.6 | 86.3 | 97.1 | 101 | 108 | 103 | 0 | – | 0 | 0 | 0 | – |
| CN(c1ncccc1CNc1nc(Nc2ccc3c(c2)CC(=O)N3)ncc1C(F)(F)F)S(C)(=O)=O | – | – | 1.46 | 3.74 | 105 | 111 | 107 | 91.5 | 53.1 | 98.5 | 101 | 87.8 | 83.9 | 41.5 | – | – | – | – | – | 108 | 113 | 108 | 74.1 | 7.9 | 108 | 104 | 100 | 108 | 39.5 | 3.9 | 5.1 | – | 9 | 2.8 | 1640 |
| Cc1nc[nH]c1CCN [4-methylhistamine] | > 10 | > 10 | > 10 | > 10 | 91.9 | 95.1 | 99.2 | 100 | 101 | – | – | – | – | – | 95.1 | 99.5 | 104 | 98 | 104 | 98.1 | 98.6 | 88.5 | 96.2 | 91.9 | 89.5 | 101 | 107 | 88 | 99.2 | 0 | – | 0 | 0 | 0 | – |
| Cc1nnc(C[C@@H]2C=C(c3ccc(Cl)cc3)c3ccccc3-n3c(C)nnc32)o1 [BET-BAY-002] | – | 0.557 | 0.355 | – | 96.9 | 97.1 | 90.4 | 74.8 | 68.3 | 94.6 | 98 | 72.1 | 23.3 | 16.2 | 97.1 | 101 | 88.2 | 61.4 | 36.9 | 91 | 94.1 | 87 | 58.6 | 41.5 | 93.1 | 103 | 94.7 | 62.5 | 53.9 | 4.9 | 17.5 | 8.6 | 9.2 | 7.4 | 169 |
| O=S(=O)(N[C@H]1CC[C@@](c2cc(F)ccc2F)(S(=O)(=O)c2ccc(Cl)cc2)CC1)C(F)(F)F [MRK-560] | > 10 | > 10 | > 10 | > 10 | 88.8 | 99.1 | 94.5 | 94.7 | 95.6 | – | – | – | – | – | 99.9 | 102 | 100 | 101 | 95.9 | 98.5 | 91.2 | 106 | 81.5 | 86.4 | 96.2 | 91.2 | 104 | 97.7 | 102 | 0 | – | 0 | 2.1 | 0 | – |
| Cc1nc(-c2ccc(OCC(C)C)c(C#N)c2)sc1C(=O)O [febuxostat] | > 10 | > 10 | > 10 | – | 93.5 | 94 | 104 | 98.6 | 96.1 | 94.3 | 98.5 | 100 | 101 | 96.4 | 92.8 | 99.9 | 97.2 | 102 | 106 | 112 | 96.8 | 107 | 96.8 | 94.1 | – | – | – | – | – | 0 | 0 | 0 | 0 | – | > 10000 |
| CC(N)C12CC3CC(CC(C3)C1)C2 (stereo not drawn) [rimantadine] | > 10 | > 10 | > 10 | > 10 | 101 | 94.6 | 101 | 103 | 103 | – | – | – | – | – | 95.3 | 98 | 101 | 102 | 104 | 93.6 | 108 | 100 | 101 | 103 | 91 | 84.1 | 82.5 | 96.6 | 95.6 | 0 | – | 0 | 0 | 0 | – |
| CO[C@@H]1COCC[C@@H]1N[C@@H]1CC[C@@](C(=O)N2CCc3ncc(C(F)(F)F)cc3C2)(C(C)C)C1 [MK-0812] | > 10 | > 10 | > 10 | – | 110 | 95.7 | 99 | 113 | 97.5 | 102 | 100 | 111 | 106 | 97.2 | 98.8 | 106 | 101 | 106 | 103 | 96.5 | 82.9 | 90.3 | 94.7 | 98.4 | – | – | – | – | – | 0 | 0 | 0 | 0 | – | > 10000 |
| CCCC[C@@H](NC(=O)[C@@H](Cc1cn(C(=O)OC)c2ccccc12)NC(=O)[C@H](CC(C)(C)C)NC(=O)N1[C@H](C)CCC[C@@H]1C)C(=O)O [BQ-788] | > 10 | > 10 | > 10 | > 10 | 102 | 104 | 96.1 | 106 | 104 | – | – | – | – | – | 97.1 | 90.1 | 95.8 | 105 | 99.8 | 89.9 | 88.1 | 104 | 107 | 101 | 98.9 | 98.3 | 112 | 106 | 97.2 | 0 | – | 0 | 0 | 0 | – |
| O=C(NC[C@H]1CN(c2ccc(N3CCOCC3=O)cc2)C(=O)O1)c1ccc(Cl)s1 [Rivaroxaban (Xarelto)] | > 10 | > 10 | > 10 | > 10 | 92.6 | 95.4 | 101 | 86.9 | 91 | – | – | – | – | – | 103 | 99.1 | 102 | 96 | 102 | 102 | 102 | 97.1 | 110 | 90.9 | 96.4 | 89.7 | 105 | 102 | 96.4 | 0 | – | 0 | 0 | 0 | – |
| CCOc1ccc2nc(SCCN3CCOCC3)[nH]c2c1 [afobazole] | > 10 | – | > 10 | > 10 | 102 | 110 | 104 | 99.5 | 102 | – | – | – | – | – | – | – | – | – | – | 112 | 101 | 107 | 99.5 | 103 | 95.5 | 97.8 | 84.4 | 101 | 99.8 | 0 | – | – | 0 | 0 | – |
| CC1(C)CCC(C)(C)c2cc(C#Cc3ccc(C(=O)O)cc3)ccc21 [EC-23] | > 10 | > 10 | > 10 | – | 104 | 105 | 89.1 | 88.8 | 80.6 | 102 | 99.6 | 100 | 97.4 | 94.2 | 105 | 100 | 98.4 | 95.7 | 97.4 | 96.5 | 108 | 104 | 108 | 106 | 106 | 88.7 | 83.9 | 63.9 | 85.7 | 1.7 | 0 | 0 | 0 | 5.2 | > 10000 |
| NC(=O)c1nc(Nc2ccccc2)sc1NC(=O)C1CCCCC1 [UNC3230] | > 10 | > 10 | > 10 | – | 98.6 | 97.8 | 98 | 89.2 | 75.1 | 99.1 | 92.6 | 98.1 | 99 | 70.8 | 102 | 96.9 | 97.5 | 93.8 | 88.8 | 96.6 | 104 | 88.1 | 104 | 88.5 | 86.3 | 84.9 | 90.8 | 79 | 69.7 | 1.9 | 1.4 | 0 | 0 | 5.6 | – |
